These results are taken from patent US20110257220A1, “3,11 b-cis-Dihydrotetrabenazine for the Treatment of Schizophrenia and Other Psychoses” (CAMBRIDGE LABORATORIES (IRELAND) LIMITED, priority 2005, published 2011).

Experiment [1] has as its system female hooded-Lister rats. As to conditions: risperidone; Grayson et al; cited from earlier work.
For experiment [2], the system named is female hooded-Lister rats. The experiment in a line: Novel object recognition (NOR) task, sub-chronic PCP-induced cognitive deficit. Format: in vivo, rat. Conditions: 0.2 mg/kg risperidone i.p.; sub-chronic PCP rats; did not reach statistical significance; FIG. 3. From the text: Certain pre-clinical tests allow the observation of relatively subtle cognitive deficits in the rat that resemble cognitive symptoms in subjects with schizophrenia. The cognitive deficits observed are seen in behaviours such as working memory deficits which may be measured by recognition tasks such as the novel object recognition (NOR) paradigm. A recognition memory task allows the comparison between presented stimuli and previously stored information. Ennaceur & Delacour, Behav. Brain Res. 31: 47-59 (1988) described the NOR test in rats which was based on the differential exploration of familiar and new objects. The NOR test is a non-rewarded, ethologically relevant paradigm based on the spontaneous exploratory behaviour of rats which measures working memory. Each session consists of two trials. In the first trial, the rats are exposed to two identical objects in an open field. During the second trial, rats are exposed to two dissimilar objects, one familiar object from the first trial and one new object. Object recognition in rats can be measured as the difference in time spent exploring the familiar and the new object.
The abovementioned rodent model was used to assess the effects of the Isomer A on sub-chronic PCP-induced deficits in working memory using the novel object recognition (NOR) paradigm. The working hypothesis was that both acute and sub-chronic treatment with Isomer A will attenuate the selective working memory deficit induced by sub-chronic PCP as measured in the NOR test paradigm.
Rats are allowed to habituate to the empty test box and the behavioural test room environment for 1 hour on day 1. Prior to behavioural testing on day 2 rats are given a further 3 minutes habituation.
Following the 3 minute habituation period, the rats are given two 3 minute trials (T1 and T2) which are separated by a 1 minute inter-trial interval in the home cage during which the objects are changed.
In this trial, the animals are allowed to explore two identical objects (A1 and A2) for 3 minutes.
In this trial, the animals explore a familiar object (A) from T1 and a novel object (B) for 3 minutes. The familiar object presented during T2 is a duplicate of the object presented in T1 in order to avoid any olfactory trails.
The object exploration is defined by animals licking, sniffing or touching the object with the forepaws whilst sniffing, but not leaning against, turning around, standing or sitting on the object. The exploration time (s) of each object (A1, A2, A and B) in each trial are recorded using two stopwatches and the following factors are calculated: • Total exploration time of both objects in the acquisition trial (s). • Total exploration time of both objects in the retention trial (s). • Habituation of exploratory activity. The LMA includes the exploration time, as measured by the number of lines crossed, for both the trials. • Discrimination index, which is calculated as shown below;
(time spent exploring novel object−time spent exploring familiar object)÷total time spent in exploring the objects
Behaviour in all trials was recorded on video for subsequent blind scoring.
50 female hooded-Lister rats (Harlan, UK) were used as subjects for these studies. Rats were housed in groups of 5 under standard laboratory conditions under a 12 hr light:dark cycle, lights on at 0700 hr. All testing was carried out in the light phase. Food and water were freely provided. […]

Turning to `Cc1nc2n(c(=O)c1CCN1CCC(c3noc4cc(F)ccc34)CC1)CCCC2` [risperidone, reference compound], in experiment [1], the “Sub-chronic PCP-induced deficit in NOR paradigm” value was “efficacy of risperidone to attenuate”. Moreover, the “Discrimination index (DI)” value in experiment [2] is “improved”.
